Assays:
Assay type in all cases: in vivo, mouse
[1] = test system: diet-induced obese (DIO) mice
Text: For studies on lipid handling in wildtype mice (Western mice), male C57Bl/6j mice (Jackson Laboratories) were fed a atherogenic Western diet (Research Diets D12079B), which is a high-cholesterol diet (0.21% gm %) with 41% kcal from fat, 43% kcal from carbohydrates, and 17% kcal from protein. For studies on energy metabolism in obese mice (DIO mice), male C57Bl/6j mice (Jackson Laboratories) were fed a diabetogenic diet (Research Diets D12331), which is a high-sucrose diet with 58% kcal from fat 25.5% kcal from carbohydrates, and 16.4% kcal from protein. Both dietary challenges began at 8 weeks of age. HFHSD and HFHCD mice were single- or group-housed on a 12:12-h light-dark cycle at 22° C. with free access to food and water. Mice were maintained under these conditions for a minimum of 16 weeks before initiation of pharmacological studies and were between the ages of 6 months to 12 months old. All injections and tests were performed during the light cycle. Compounds were administered in a vehicle of 1% Tween-80 and 1% DMSO and were given by daily subcutaneous injections at the indicated doses at a volume of 5 μl per g body weight. Mice were randomized and evenly distributed to test groups according to body weight and body composition. If ex vivo molecular biology/histology/biochemistry analyses were performed, the entire group of mice for each treatment was analyzed and scored in a blinded fashion.
(§1) Compounds were administered by repeated subcutaneous injections in the middle of the light phase at the indicated doses with the indicated durations. Co-administration of compounds was administered by single formulated injections. Body weights and food intake were measured every day or every other day after the first injection. All studies with wild-type mice were performed with a group size of n=8 or greater using mice on a C57B16j background.
Whole-body composition (fat and lean mass) was measured using nuclear magnetic resonance technology (EchoMRI).
(§2) Energy intake, energy expenditure, respiratory exchange ratio, and home-cage activity were assessed using a combined indirect calorimetry system (TSE Systems). O2 consumption and CO2 production were measured every 10 min for a total of up to 120 h (after 24 h of adaptation) to determine the respiratory quotient and energy expenditure after an initial treatment regimen. Food intake was determined continuously for the same time as the indirect calorimetry assessments by integration of scales into the sealed cage environment. Home-cage locomotor activity was determined using a multidimensional infrared light beam system with beams scanning the bottom and top levels of the cage, and activity being expressed as beam breaks.
Blood was collected at the indicated times from tail veins or after euthanasia using EDTA-coated microvette tubes (Sarstedt), immediately chilled on ice, centrifuged at 5,000 g and 4° C., and plasma was stored at −80° C. For […] (FPLC) of cholesterol distribution in different lipoprotein fractions, fresh plasma from each treatment group was pooled (n=6-8) and ran over two Superose 6 HR columns in tandem. Cholesterol levels in the collected fractions were determined by colorimetric assay. Plasma insulin and T3 were quantified by an ELISA assay (Ultrasenstive Mouse Insulin ELISA and Rodent T3 ELISA; Alpco). Plasma FGF21 was quantified by an ELISA assay (Mouse FGF21 ELISA; Millipore). Plasma cholesterol, extracted hepatic cholesterol, triglycerides, ALT, and AST were measured using enzymatic assay kits (Thermo Fisher). Plasma creatinine and blood urea nitrogen were measured using enzymatic assay kits (Abcam). Plasma free fatty acids were measured using enzymatic assay kits (Wako). All assays were performed according to the manufacturers' instructions. […]

[2] = test system: DIO mice; test: Cardiac function and histology in DIO mice (echocardiography)
Procedure: After chronic treatment, HFHCD-fed or HFHSD-fed C57B16/j male mice (age) were sacrificed with CO2, body weight as well as heart weights and tibia length was taken during necropsy. Livers and whole hearts were embedded in paraffin using a vacuum infiltration processor TissueTEK VIP (Sakura). 3 μm thick slides were cut using a HMS35 rotatory microtome (Zeiss) and H & E staining was performed. For H & E staining, rehydration was done in a decreasing ethanol series, rinsing with tapwater, 2 min Mayers acid Hemalum, bluing in tapwater followed by lmin EosinY (both BioOptica). Dehydration was performed in increasing ethanol series, mounting with Pertex® (Medite GmbH) and coverslips (CarlRoth Chemicals). The slides were evaluated independently using a brightfield microscope (Axioplan, Zeiss). Photos were taken using the Hamamatsu-Nanozoomer HT2.0 in 1.25×, 5×. 20× and 40× magnification. The hepatic steatosis score is defined as the unweighted sum of the three individual scores for steatosis, lobular inflammation and ballooning degeneration. Steatosis is graded by the presence of fat vacuoles in liver cells according to the percentage of affected tissue (0: <5%; 1: 5-33%; 2: 33-66%; 3: >66%). Lobular inflammation is scored by overall assessment of inflammatory foci per 200× field (0: no foci; 1: <2 foci; 2: 2-4 foci; 3: >4 foci). The individual score for ballooning degeneration ranges from 0 (none), 1 (few cells) to 2 (many cells). Total scores range from 0 to 8 with scores <2 considered non-steatosis, 3 considered as borderline steatosis, 4-5 considered onset of steatosis, and >6 considered steatosis. Different to liver and heart, inguinal fat pad samples were embedded in paraffin using Leica embedding machine (EG1150 H) and cut in 5 μm sections using Leica Microtome (RM2255) to perform H&E staining. Samples were stained with hematoxyline for 4 minutes and eosinY for 2 minutes and fixed with Roti®-Histokitt (Carl Roth) before analysing them independently using Microscope Scope A.1 (Zeiss).
For transthoracic echocardiography, a Vevo2100 Imaging System (VisualSonics Inc., Toronto Canada) with a 30 MHz probe was used. All echocardiograms were performed on conscious animals to prevent anesthesia-related impairment of cardiac function as reported previously. Briefly, echocardiograms were obtained in parasternal long and short axis views. For accurate linear measurements of LV internal dimensions (LVID) and […] (LVPW) or septal (IVS) wall thicknesses, M-mode images of the heart in parasternal short-axis view at the level of the papillary muscle were acquired. Qualitative and quantitative measurements were made offline using analytical software (VisualSonics Inc.). Fractional shortening (FS) was calculated as FS %=[(LVIDd−LVIDs)/LVIDd]×100. Ejection fraction (EF) was calculated as EF %=100*((LVvolD−LVvolS)/LVvolD) with LVvol=((7.0/(2.4+LVID)*LVID^3). The corrected LV mass (LV MassCor) was calculated as LV MassCor=0.8(1.053*((LVIDd+LVPWd+IVSd)^3−LVIDd^3)). Heart rate and respiration rate were determined from M-mode tracings, using 3 consecutive intervals.
Gene expression profiling in the liver, iWAT, eWAT, BAT, and heart were performed following treatment of mice according to the treatment paradigms explained in the figure legends for each specific analsysis. For tissue collection, mice were fasted for 4 h and treated with compounds 2 h prior to tissue collection. Gene expression was profiled with quantitative real-time RT-PCR using either TaqMan single probes or with specifically-designed TaqMan low-density array cards. The relative expression of the selected genes was normalized to the reference gene hypoxanthine-guanine phosphoribosyltransferase (Hprt).

[3] = test system: DIO mice; test: Glycemic control in DIO mice; conditions: i.p. pyruvate 1.5 g kg-1
Procedure: as §1
For assessment of glucose, pyruvate, and insulin tolerance during chronic treatment, the challenge tests were performed at least 24 hours after the last administration of compounds. […]
as §2, with “breaks. […]” for “breaks.”

## N[C@@H](Cc1cc(I)c(Oc2ccc(O)c(I)c2)c(I)c1)C(=O)O [T3, 3,5,3′-triiodothryonine]
[1]; DIO mice on HFHSD
  home cage (ambulatory) activity: significantly increased
[1]; DIO mice on HFHSD, 7 days
  food intake: increased
[1]; DIO mice on HFHSD, equimolar doses, 100 nmol kg-1 daily, 7 days
  body weight lowering: Neither glucagon nor T3 appreciably lowered body weight
[1]; DIO mice on HFHSD, indirect calorimetry
  whole-body energy expenditure: substantially increased
[1]; mouse, in vivo
  circulating levels of T3: resulted in an increase
  rectal temperature: increased rectal temperature
[2]; histological profiling of the hearts
  heart histology: cell death: marked cell death was detectable
[2]; mouse, in vivo
  heart histology: thyrotoxic cardiomyopathy: marked features of thyrotoxic cardiomyopathy
  whole heart expression of T3-sensitive genes (Dio2, Ucp2): directly increased
  whole heart expression of hypertrophic gene markers (Nppa, Nppb): directly increased
[3]
  pyruvate tolerance (hepatic glucose output): substantially improved

— patent US20190388510A1, “GLUCAGON-T3 CONJUGATES” (priority 2016, published 2019)
